How the values were obtained:
rat mesangial cell line [1] = test: Effect on mesangial cell appearance (visual monitoring during proline assay); type: cell-based
Experimental: (§1) A well-characterized cloned rat mesangial cell line (gift of D Nikolic-Patterson) is cultured in DMEM with FBS, 100 U/mL penicillin, and 100 ug/mL streptomycin in a humidified 5% CO2 atmosphere at 37° C. Cells are plated into 24-well culture dishes in DMEM/10% FBS at low density and allowed to adhere overnight. Cells are used between passages 20 and 40. The subconfluent cells are starved overnight in DMEM/0.1% FBS containing 150 uM L-ascorbic acid, prior to 4 hours of pre-treatment with or without tranilast or the FT compounds, followed by the addition of 5 ng/mL rhTGF-β11 (R&D Systems) and 1 uCi/mL of L-(2,3,4,5-^3H)-proline. Control wells have the compounds but no TGF-β1 added. Cells are incubated for a further 44 hours during which time their appearance is visually monitored. The cells are then washed three times in ice-cold PBS, twice in ice cold 10% TCA and solubilized in 750 uL 1M NaOH for 45 minutes at 37° C. or overnight at 4° C. A 500 uL aliquot is neutralized with 500 uL 1M HCl and 10 mL scintillation fluid (Instagel Plus-Perkin-Elmer) added. Counts are performed on a beta counter.
Compounds in Bold have Minimal Effect on Cell Appearance and Viability

Mesangial cells = test: Mesangial cell MTT assay with TGF-β; type: cell-based, rat; settings: suppressed = reduced cell viability
Experimental: Mesangial cells are plated at 15000 cells per well into 96-well culture dishes in DMEM/10% FBS and allowed to adhere overnight. The subconfluent cells are starved overnight in DMEM/0.1% FBS, prior to 4 hours of pre-treatment with or without tranilast or the FT compounds. Following the addition of 5 ng/mL rhTGF-β1, the cells are incubated in a humidified 5% CO2 atmosphere at 37° C. for 44 hours. Control wells have the compounds but no TGF-β1 added. The culture medium is removed from each well and 100 uL MTT (0.5 mg/mL) in starve medium is added to each well. The plates are incubated for a further 4 hours at 37° C. The culture medium is then removed and replaced with 100 μL isopropanol and incubated at 37° C. for 20 to 30 minutes, until the blue formazan crystals have dissolved. The absorbance is measured at a wavelength of 570 nm with background subtraction of 690 nm.
Suppressed MTT Result Indicates Reduced Cell Viability

rat mesangial cell line [2] = test: TGF-β stimulated 3H-proline incorporation in mesangial cells (Example 5); type: cell-based; settings: for inhibition at 3 µM / inhibition at 10 µM / inhibition at 30 µM / inhibition at 1 µM: Rattus norvegicus, Mesangial cell, 5 ng/mL TGF-β1, 44 h, read-out: Mesangial Cell Assay TGF-β % reduction of TGF-β stimulation_proline inc.; for Collagen synthesis: inhibition ranked against tranilast (T) or FT11
Experimental: as §1
To normalize the proline incorporation counts to take into account the proliferative effects of TGF-β1, a BioRad protein assay is performed on a 100-150 uL aliquot of the remaining solubilized cells. The sample is neutralized with an equal amount of 1M HCl prior to the assay. The BSA standards used to construct the standard curve have the same amount of 1M NaOH and 1M HCl added as is present in the samples for assay.
Proline incorporation is expressed as cpm/ug protein. In order to compare inter-assay results, the incorporation is expressed as percentage reduction of TGF stimulated proline incorporation, where TGF alone gives 0% reduction and the zero control gives 100% reduction.

[3] = test system: Neonatal rat cardiac fibroblasts (NCFs); test: NCF TGF-β collagen synthesis, 3H-proline incorporation (Example 6); type: cell-based
Experimental: Neonatal SD rat cardiac myocytes (NCMs) and fibroblasts (NCFs) were isolated from one-day-old pups with enzymatic digestion as described in detail previously. NCFs were seeded and maintained in high-glucose (25 mmol/L) Dulbecco's modified Eagle's medium (DMEM) (Invitrogen Mount Waverley, Vic, Australia) in the presence of 1% antibiotic/antimycotic (AB/AM) and 10% fetal bovine serum (FBS) (JRH biosciences, Kansas, USA). NCFs were used at passage 2 [31]. Purified NCMs were seeded (1000 cells/mm^2) in 6-well plates and then maintained in serum-free DMEM (Invitrogen, NY, USA) supplemented with insulin and transferrin as described previously (4). Bromodeoxyuridine was included for the first 3 days. 50 mmol/L KCl was added to the medium to prevent spontaneous contraction characteristic of the plated NCMs.
NCFs collagen synthesis assays were performed as described previously. Briefly, NCFs plated at a density of 50,000 cells/well in 12-well plate and incubated overnight. NCFs were then serum starved for 24 hours in high-glucose DMEM. […]
For collagen synthesis, 1 μCi of [^3H]-Proline was added to each well and incubated for further 48 hours before harvest. Cells were harvested by precipitation with 10% TCA on ice for 30 min, before solubilisation with 0.75 mL of 1 mol/L NaOH overnight at 4° C. The samples were then neutralized with 1 mol/L HCl and ^3H level were counted with 10 ml scintillation fluid on a beta-counter to determine [^3H]-proline incorporation.

SMILES	Effect on mesangial cell appearance (rat mesangial cell line [1]; @ 10 μM)	melting point	Effect on mesangial cell appearance (rat mesangial cell line [1]; @ 100 μM)	Effect on mesangial cell appearance (rat mesangial cell line [1]; @ 30 μM)	Mesangial cell MTT Assay TGF-β (Mesangial cells; @ 30 μM)	inhibition at 3 µM (rat mesangial cell line [2])	inhibition at 10 µM (rat mesangial cell line [2])	Collagen synthesis (rat mesangial cell line [2])	inhibition at 30 µM (rat mesangial cell line [2])	NCF TGF-β Collagen Synthesis ([3]; @ 30 μM)	inhibition at 1 µM (rat mesangial cell line [2])	NCF TGF-β Collagen Synthesis ([3]; @ 10 μM)	Mesangial cell MTT Assay TGF-β (Mesangial cells; @ 10 μM)
COc1ccc(/C=C/C(=O)Nc2ccc(Br)cc2C(=O)O)cc1OC [Analogue 16, (E)-2-[[3-(3,4-Dimethoxyphenyl)-1-oxo-2-propenyl]amino]-5-bromobenzoic acid]	lifting off	210 to 213 °C			Suppressed	~20%	~50%	>>FT11					
C#CCOc1cc(/C=C/C(=O)Nc2ccccc2C(=O)O)ccc1OC [Analogue 17, (E)-2-[[3-(4-Methoxy-3-propargyloxyphenyl)-1-oxo-2-propenyl]amino]benzoic acid]							20 to 50%	>=FT11	~55%	~70% at			
COc1ccc(/C=C/C(=O)Nc2ccccc2C(=O)O)cc1OCc1cn(CC(=O)Nc2ccccc2)nn1 [Analogue 21, (E)-2-[[3-(4-Methoxy-3-((1-(2-oxo-2-(phenylamino)ethyl)-1H-1,2,3-triazol-4-yl)methoxy)phenyl)-1-oxo-2-propenyl]amino]benzoic acid]			necrotic		Suppressed		~20%	=FT11	~65%				
COc1cc(/C=C/C(=O)Nc2ccccc2C(=O)O)ccc1OC1CCCC1 [Analogue 26, (E)-2-{[3-(4-Cyclopentyloxy-3-methoxyphenyl)-1-oxo-2-propenyl]amino}benzoic acid]		96 to 98 °C	lifting off	sparse		30%	85%	>FT11	93%		~13%	28% at	
COc1cc(/C=C/C(=O)Nc2ccccc2C(=O)O)ccc1OC1CCCCC1 [Analogue 27, (E)-2-{[3-(4-Cyclohexyloxy-3-methoxyphenyl)-1-oxo-2-propenyl]amino}benzoic acid]	Sparse @	90 to 92 °C	lifting off	sick @ 30 μM	Suppressed	40%	75 to 90%	>FT11			~18%		
COc1cc(/C=C/C(=O)Nc2ccccc2C(=O)O)ccc1OCC1CCCCC1 [Analogue 28, (E)-2-{[3-(4-Cyclohexylmethoxy-3-methoxyphenyl)-1-oxo-2-propenyl]amino}benzoic acid]		207 to 210 °C	Dead @	Stressed @			~40%	<FT11	173%				deadly ®
COc1ccc(/C=C/C(=O)Nc2ccccc2C(=O)O)cc1OC1CCCC1 [Analogue 29, (E)-2-{[3-(3-Cyclopentyloxy-4-methoxyphenyl)-1-oxo-2-propenyl]amino}benzoic acid]	Sparse @	211 to 217 °C	Stressed @		Suppressed	40%	~90%	>FT11		25% @ 30 μM	~8%	10% @ 10 μM	
C#CCCCCOc1ccc(/C=C/C(=O)Nc2ccccc2C(=O)O)cc1OC [Analogue 33, (E)-2-[[3-(4-(Hex-5-ynyloxy)-3-methoxyphenyl)-1-oxo-2-propenyl]amino]benzoic acid]		148 to 150 °C		Looking bad		40%	60%	>FT11	80%		~15%		Severely
CCC(CC)Oc1ccc(/C=C/C(=O)Nc2ccccc2C(=O)O)cc1OC [Analogue 45, (E)-2-[[3-(3-Methoxy-4-(pent-3-yloxy)phenyl)-1-oxo-2-propenyl]amino]benzoic acid]		82 to 85 °C	Cells damaged				80%	>FT11	142%				

Second part, led by results:

Effect on mesangial cell appearance (rat mesangial cell line [1]; @ 10 μM)	melting point	Effect on mesangial cell appearance (rat mesangial cell line [1]; @ 100 μM)	Effect on mesangial cell appearance (rat mesangial cell line [1]; @ 30 μM)	SMILES	Mesangial cell MTT Assay TGF-β (Mesangial cells; @ 30 μM)	inhibition at 3 µM (rat mesangial cell line [2])	inhibition at 10 µM (rat mesangial cell line [2])	Collagen synthesis (rat mesangial cell line [2])	inhibition at 30 µM (rat mesangial cell line [2])	NCF TGF-β Collagen Synthesis ([3]; @ 30 μM)	inhibition at 1 µM (rat mesangial cell line [2])	NCF TGF-β Collagen Synthesis ([3]; @ 10 μM)	Mesangial cell MTT Assay TGF-β (Mesangial cells; @ 10 μM)
	135 to 137 °C		Looking bad	C#CCCCCOc1cc(/C=C/C(=O)Nc2ccccc2C(=O)O)ccc1OC [Analogue 34, (E)-2-[[3-(3-(Hex-5-ynyloxy)-4-methoxyphenyl)-1-oxo-2-propenyl]amino]benzoic acid]	Suppressed		~80%	>FT11	94%				
	166.5 to 167.5 °C		Looking bad	C#CCCCOc1ccc(/C=C/C(=O)Nc2ccccc2C(=O)O)cc1OC [Analogue 35, (E)-2-[[3-(3-Methoxy-4-(pent-4-ynyloxy)phenyl)-1-oxo-2-propenyl]amino]benzoic acid]		~25%	50%	=>FT11	60 to 100%				Suppressed
	154 to 156 °C			C#CCCCOc1cc(/C=C/C(=O)Nc2ccccc2C(=O)O)ccc1OC [Analogue 36, (E)-2-[[3-(4-Methoxy-3-(pent-4-ynyloxy)phenyl)-1-oxo-2-propenyl]amino]benzoic acid]	Severely		~50%	=>FT11	80%				
